Where a SMILES comes first, the peptide text is derived from it. [ ]: non-standard residue; d: D form. The star is where a group is joined. Sta = CC(C)C[C@H](N)[C@@H](O)CC(=O)O; Isovaleryl = CC(C)CC(=O)*
B1: Soybean trypsin inhibitor: plant-derived trypsin inhibitor; serine protease inhibitor (protein, UniProt P01070 25-205, looked up)
Trypsin inhibitor A: DFVLDNEGNPLENGGTYYILSDITAFGGIRAAPTGNERCPLTVVQSRNELDKGIGTIISSPYRIRFIAEGHPLSLKFDSFAVIMLCVGIPTEWSVVEDLPEGPAVKIGENKDAMDGWFRLERVSDDEFNNYKLVFCPQQAEDDKCGDIGISIDHDDGTRRLVVSKNKPLVVQFQKLDKESL

Experiments:
purified chymotrypsin = test: Purified Protease Method: purified chymotrypsin; format: biochemical; details: pH 7.6, 25° C., read-out: IC50 Values, Purified Proteases, Chymotrypsin
Method: Standard in vitro assays for enzyme activity and inhibition of enzyme activity are well known. The reagents used to conduct these tests are generally commercially available. In general, a simple system comprises an enzyme-specific substrate which, when hydrolyzed by the enzyme, produces a colored product. The activity of the enzyme is measured spectrophotometrically as the degree of development of the colored product (i.e. the rate of color change) over a predetermined time period.
For the Purified Protease assay and the Fecal Protease assays described below, the IC50 for each inhibitor tested is calculated according to the following equation: IC50=[I]/[(v/vi)−1] where: [I] is the inhibitor concentration tested, v is the rate of substrate cleavage in the absence of inhibitor and vi is the rate of substrate cleavage in the presence of inhibitor.
The following Purified Protease and Fecal Protease Methods are utilized to determine the inhibitory activity of putative protease inhibitors against a) purified proteases known to exist in feces; and b) the protease activity of feces itself; respectively. […] In the Methods, v and vi are measured as the change in absorbance (optical density, OD) at a given wavelength/time (e.g., minutes).
To test the efficacy of protease inhibitors against purified chymotrypsin, 0.05 mL of a putative inhibitor and 0.125 mL of 16 nM chymotrypsin (e.g., Sigma, St. Louis, Mo., catalogue no. C8946) in chymotrypsin buffer (50 mM TRIS, 10 mM CaCl2, pH 7.6) are added to a microcuvette. […] To this mixture, 0.025 mL of substrate (0.6 mM N-Succ-Ala-Ala-Pro-Phe-p-nitroanilide, e.g., Sigma cat. no. S7388) in chymotrypsin buffer is added to the cuvette, mixed, and the absorbance at 405 nm measured over 10 minutes at 25° C. The rate of substrate cleavage in the presence of inhibitor (vi) is the slope of a plot relating the absorbance at 405 nm versus time. […] The rate of substrate cleavage in the absence of inhibitor (v) is the slope of a plot relating the absorbance at 405 nm versus time. […]

[1] = test system: IL-1α production by cultured keratinocytes in the presence of feces; test: In Vitro Skin Test for Inhibition of IL-1α Production; format: cell-based, human
From the text: In an in vitro method to determine the efficacy of protease inhibitors in preventing the proinflammatory response of the skin to feces and fecal enzymes, human keratinocytes are obtained from epidermal tissue and cultured in serum free medium in plastic culture vessels containing a nylon mesh surface for a period of time until they are confluent. The mesh surface is then raised to the liquid air interface in order to promote differentiation and formation of multilayered organized layers analogous to those found in vivo, including a well defined stratum corneum barrier layer. Any cell culture system that promotes the growth and differentiation of keratinocytes, as described, may be employed. A commercially available cell culture system suitable for use in the invention is Epiderm (MatTek Corporation, Ashland, Mass.). Infant feces are collected in a manner to keep them free of urine contamination and diluted with phosphate-buffered saline (PBS) (pH 7.2-7.4.) The mixture is then mixed thoroughly to obtain a homogeneous suspension by homogenization or sonication. To assay for IL-1α production due to fecal enzyme activity, an aliquot of the homogenate is diluted with PBS and added to the surface of a control culture in a culture vessel. To assay for inhibition of IL-1α production due to protease activity, a predetermined quantity of a putative protease inhibitor is added to an otherwise identical diluted aliquot of the homogenate prior to adding it to the surface of a test culture. The cultures are allowed to incubate in a controlled atmosphere. At selected times, the control cultures and inhibitor-treated test cultures, and the underlying culture media are harvested. The culture media are assayed for the presence of IL-1α by known methods. For example, a suitable assay for IL-1α is an enzyme-linked immunoabsorbent method commercially available as Quantikine from R&D Systems, Minneapolis, Minn. The percent reduction in IL-1α production due to the presence of the protease inhibitor is calculated as follows: [formula] […]

Molecule	IC50 (purified chymotrypsin)	further results
Aprotinin	1000 nM	–
CC(C)CC(=O)N[C@H](C(=O)N[C@H](C(=O)N[C@@H](CC(C)C)[C@@H](O)CC(=O)N[C@@H](C)C(=O)N[C@@H](CC(C)C)[C@@H](O)CC(=O)O)C(C)C)C(C)C [Pepstatin A] (Isovaleryl-VV[Sta]A[Sta]-OH)	4900 nM	–
N=C(N)c1ccc(OCCCCCCOc2ccc(C(=N)N)cc2)cc1 [Hexamidine diisethionate, hexamidine diisethionate]	–	reduction of IL-1α production from skin cultures treated with feces ([1]; inhibitor concentration 100 μM): 5%; reduction of IL-1α production from skin cultures treated with feces ([1]; inhibitor concentration 1000 μM): 51-88%
CC(C)C[C@H](NC(=O)[C@@H](NC(=O)N[C@@H](Cc1ccccc1)C(=O)O)[C@@H]1CCN=C(N)N1)C(=O)N[C@H](C=O)Cc1ccccc1 [Chymostatin]	< 120 nM	–
B1	–	reduction of IL-1α production from skin cultures treated with feces ([1]; inhibitor concentration 10 μM): 56-75%

Reference: US8309788B2, “Protease inhibitors in absorbent articles” (The Procter and Gamble Company, priority 1999, dated 2012)
